Series [1] has as its system H1975 non-small cell lung cancer (NSCLC) cells. Description: CCK-8 cell viability assay, H1975. The following applies: Homo sapiens, NCI-H1975, CCK-8, 72 h, mean ± SD of three experiments, read-out: Antiproliferative Activity IC50, H1975. It is filed as cell-based. As for the experimental part: (§1) The H1975 human NSCLC cell line was obtained from ATCC. A431 human epithelial carcinoma and HBE human bronchial epithelial cell lines were kind gifts from Fuheng Biological Company Ltd. (Shanghai, China) and YuXi Biotech Company (Jiangsu, China), respectively. The cells were maintained in RPMI 1640 or DMEM (Gibco®, Thermo Fisher Scientific Inc., Waltham, MA, USA) containing 10% fetal bovine serum (FBS, Gibco®) and 1% penicillin-streptomycin (Beyotime Company, Shanghai, China) at 37 °C in a 5% CO2 incubator.
(§2) A total of 3000 cells of H1975 or HBE and 5000 cells of A431 were seeded for each well into a 96-well plate and cultured in 10% FBS respective growth medium overnight. Various concentrations (0–20 μM) of each compound were then added in triplicate to the cells. After 72 h of incubation, 10 μL of CCK-8 solution (5.0 mg/mL, Biotool Company, Kirchberg, Switzerland) was added to each well and the cells continued to culture for 4 h. The optical density (OD) was determined at 450 nm with a microplate reader (Thermo Fisher Scientific, Waltham, MA, USA). IC50 values were calculated employing GraphPad Prism version 8.0.
(Tetrazolium dyes change colour on reduction, which living cells bring about.)

Series [2] addresses T1, FAK kinase (Homo sapiens, UniProt Q05397).
T1 construct: purchased Promega Corporation V9301
Description: ADP-Glo kinase enzymatic assay. The series is classed as biochemical. The following applies: mean ± SD of three independent experiments. As for the experimental part:
The ADP-Glo™ Kinase Assay Kit and FAK Kinase Enzyme (Catalog. V9301) were purchased from Promega Corporation (Madison, WI, USA). The experiments were performed according to the detailed and complete protocols of the manufacturer. Briefly, the concentration of FAK determined by optimization experiments was 0.1 μg/μL. Suitable concentration gradients from 1.6 to 1000 nM were set for all the tested compounds. A kinase reaction buffer, a substrate/ATP mixture, and a FAK solution were prepared right before use. The 5 μL kinase reaction consisted of 1 μL of compound solution, 2 μL of substrate/ATP mixture, and 2 μL of FAK solution. The control without enzyme was provided by 3 μL of kinase reaction buffer and 2 μL of substrate/ATP mixture. The negative control was prepared using 1 μL of kinase reaction buffer instead of a compound solution. The kinase reactions were added to a 384-well plate and incubated at room temperature for 60 min, then 5 μL of ADP-Glo™ Reagent was added to stop the kinase reaction and deplete the unconsumed ATP, and incubated at room temperature for 40 min. After adding 10 μL of Kinase Detection Reagent, the plate was incubated at room temperature for 30 min and then luminescence was recorded (integration time 0.5–1 s) on a TriStar® LB942 Multimode Microplate Reader (BERTHOLD TECHNOLOGIES GmbH & Co. KG., Bad Wildbad, Germany). Curve fitting and data presentations were performed using GraphPad Prism version 8.0.
On the technique in general: ADP-Glo turns the ADP formed in a reaction into a luminescent signal.

Series [3] has as its system normal human bronchial epithelial cells (HBE). Description: CCK-8 cellular selectivity assay, HBE. The series is classed as cell-based. The settings on record: for IC50: Homo sapiens, Epithelial cell, HBE normal cells, CCK-8, 72 h, mean ± SD of three experiments, read-out: Antiproliferative Activity IC50, HBE; for SI Values (selectivity index): IC50 for HBE cell line/IC50 for H1975 cell line. As for the experimental part:
as §1, §2

The test system of series [4] is A431 human epithelial carcinoma cells. Description: CCK-8 cell viability assay, A431. The following applies: A-431, CCK-8, 72 h, mean ± SD of three experiments, read-out: Antiproliferative Activity IC50, A431. The series is classed as cell-based. As for the experimental part: as §1, §2

Bounds are passed on as bounds.

T1 sequence (Q05397 393-698 limits assumed): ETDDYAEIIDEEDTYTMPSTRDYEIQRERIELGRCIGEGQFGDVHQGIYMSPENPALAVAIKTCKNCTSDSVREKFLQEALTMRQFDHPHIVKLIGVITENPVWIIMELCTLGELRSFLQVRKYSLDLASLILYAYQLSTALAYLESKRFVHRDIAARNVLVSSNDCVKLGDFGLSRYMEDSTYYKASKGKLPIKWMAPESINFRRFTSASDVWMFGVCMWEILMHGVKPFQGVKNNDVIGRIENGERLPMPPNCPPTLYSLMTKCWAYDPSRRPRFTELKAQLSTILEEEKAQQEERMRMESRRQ

The term IC50 denotes the point on the concentration scale where inhibition reaches its midpoint. For `O=C(NCCCO)c1ccccc1Nc1nc(Nc2ccc(CN3CCOCC3)cc2)ncc1Cl` [Compound 8b, 2-((5-Chloro-2-((4-(morpholinomethyl)phenyl)amino)pyrimidin-4-yl)amino)-N-(3-hydroxypropyl)benzamide], the IC50 in series [1] was 0.075 ± 0.011 µM; in series [2] it was 0.061 ± 0.009 µM; in series [3], 1.15 ± 0.283 µM; in series [4], 0.207 ± 0.036 µM. For the same compound, in series [3], the “SI Values (selectivity index)” value worked out at 15.
For the compound `CC(O)CNC(=O)c1ccccc1Nc1nc(Nc2ccc(CN3CCOCC3)cc2)ncc1Cl` (centres unmarked) [Compound 8c, 2-((5-Chloro-2-((4-(morpholinomethyl)phenyl)amino)pyrimidin-4-yl)amino)-N-(2-hydroxypropyl)benzamide], the IC50 was found to be 0.119 ± 0.047 µM in series [1], 0.03 ± 0.007 µM in series [2], 4.01 ± 0.231 µM in series [3] and 0.158 ± 0.027 µM in series [4]. The “SI Values (selectivity index)” value in series [3] was determined as 34.
In the same order, the values of `CN(CCO)C(=O)c1ccccc1Nc1nc(Nc2ccc(CN3CCOCC3)cc2)ncc1Cl` [Compound 8d, 2-((5-Chloro-2-((4-(morpholinomethyl)phenyl)amino)pyrimidin-4-yl)amino)-N-(2-hydroxyethyl)-N-methylbenzamide] are 0.293 ± 0.05 µM, 0.04 ± 0.011 µM, 3.83 ± 0.5 µM, 0.161 ± 0.082 µM and 13.
For the compound `O=C(c1ccccc1Nc1nc(Nc2ccc(CN3CCOCC3)cc2)ncc1Cl)N1CCC(O)CC1` [Compound 8e], the IC50 in series [1] came out at 1.41 ± 0.132 µM; in series [2], 0.129 ± 0.037 µM; in series [3] it was 0.435 ± 0.045 µM; in series [4], 0.238 ± 0.098 µM. For the same compound, the “SI Values (selectivity index)” value in series [3] was 0.3.
Consider `O=C(c1ccccc1Nc1nc(Nc2ccc(CN3CCOCC3)cc2)ncc1Cl)N1CCC(CO)CC1` [Compound 8f], for which the IC50 in series [1] came to 2.22 ± 0.261 µM; in series [2], 0.173 ± 0.023 µM; in series [3], 0.862 ± 0.125 µM; in series [4], 0.195 ± 0.097 µM. Also, the “SI Values (selectivity index)” value in series [3] is 0.4.
For `O=C(NCCCCCCO)c1ccccc1Nc1nc(Nc2ccc(CN3CCOCC3)cc2)ncc1Cl` [Compound 8g, 2-((5-Chloro-2-((4-(morpholinomethyl)phenyl)amino)pyrimidin-4-yl)amino)-N-(6-hydroxyhexyl)benzamide] the same measures were 0.287 ± 0.061 µM, 0.198 ± 0.032 µM, 1.65 ± 0.813 µM, 0.507 ± 0.019 µM and 6.
For the compound `O=C(NCC(O)CO)c1ccccc1Nc1nc(Nc2ccc(CN3CCOCC3)cc2)ncc1Cl` (centres unmarked) [Compound 8h, 2-((5-Chloro-2-((4-(morpholinomethyl)phenyl)amino)pyrimidin-4-yl)amino)-N-(2,3-dihydroxypropyl)benzamide], the IC50 was 0.219 ± 0.082 µM in series [1], 0.072 ± 0.007 µM in series [2], 0.688 ± 0.121 µM in series [3] and 0.047 ± 0.006 µM in series [4]. Further, the “SI Values (selectivity index)” value in series [3] came out at 3.
Take `CCC(C)C(CO)NC(=O)c1ccccc1Nc1nc(Nc2ccc(CN3CCOCC3)cc2)ncc1Cl` (centres unmarked) [Compound 8i, 2-((5-Chloro-2-((4-(morpholinomethyl)phenyl)amino)pyrimidin-4-yl)amino)-N-(1-hydroxy-3-methylpentan-2-yl)benzamide]: the IC50 in series [1] is 0.815 ± 0.061 µM; in series [2] it was 0.126 ± 0.021 µM; in series [3], over 20 µM; in series [4] it was 1.25 ± 0.909 µM. Further, the “SI Values (selectivity index)” value in series [3] is listed as over 24.
The term melting point denotes the temperature, or range, at which the solid turns liquid. For `O=C(NCCOc1no[n+]([O-])c1S(=O)(=O)c1ccccc1)c1ccccc1Nc1nc(Nc2ccc(CN3CCOCC3)cc2)ncc1Cl` [Compound 9a, 4-(2-(2-((5-Chloro-2-((4-(morpholinomethyl)phenyl)amino)pyrimidin-4-yl)amino)benzamido)ethoxy)-3-(phenylsulfonyl)-1,2,5-oxadiazole 2-oxide], the melting point is 174 to 176 °C. In addition, the IC50 in series [1] was found to be 0.047 ± 0.009 µM. The compound also registered an IC50 in series [2] of 0.149 ± 0.033 µM. Also, in series [3], the IC50 was 0.916 ± 0.092 µM and the “SI Values (selectivity index)” value turned out to be 19. Moreover, the IC50 in series [4] was 0.182 ± 0.032 µM.
Turning to `O=C(NCCCOc1no[n+]([O-])c1S(=O)(=O)c1ccccc1)c1ccccc1Nc1nc(Nc2ccc(CN3CCOCC3)cc2)ncc1Cl` [Compound 9b, 4-(3-(2-((5-Chloro-2-((4-(morpholinomethyl)phenyl)amino)pyrimidin-4-yl)amino)benzamido)propoxy)-3-(phenylsulfonyl)-1,2,5-oxadiazole 2-oxide], the melting point fell in the range of 144 to 146 °C. Further, the IC50 in series [1] came out at 0.164 ± 0.051 µM. The IC50 in series [2] amounted to 0.338 ± 0.038 µM. Further, in series [3], the IC50 is 2.08 ± 0.366 µM and the “SI Values (selectivity index)” value is 13. Moreover, the IC50 in series [4] is 0.138 ± 0.031 µM.
In turn, `CC(CNC(=O)c1ccccc1Nc1nc(Nc2ccc(CN3CCOCC3)cc2)ncc1Cl)Oc1no[n+]([O-])c1S(=O)(=O)c1ccccc1` (centres unmarked) [Compound 9c, 4-((1-(2-((5-Chloro-2-((4-(morpholinomethyl)phenyl)amino)pyrimidin-4-yl)amino)benzamido)propan-2-yl)oxy)-3-(phenylsulfonyl)-1,2,5-oxadiazole 2-oxide] gave a melting point of 187 to 189 °C. For the same compound, the IC50 in series [1] was determined as 0.567 ± 0.086 µM. This compound also had an IC50 in series [2] of 0.089 ± 0.014 µM. Moreover, in series [3], the IC50 is 2.42 ± 0.546 µM and the “SI Values (selectivity index)” value is given as 4. Moreover, the IC50 in series [4] stood at 1.07 ± 0.154 µM.
The compound `CN(CCOc1no[n+]([O-])c1S(=O)(=O)c1ccccc1)C(=O)c1ccccc1Nc1nc(Nc2ccc(CN3CCOCC3)cc2)ncc1Cl` [Compound 9d, 4-(2-(2-((5-Chloro-2-((4-(morpholinomethyl)phenyl)amino)pyrimidin-4-yl)amino)-N-methylbenzamido)ethoxy)-3-(phenylsulfonyl)-1,2,5-oxadiazole 2-oxide] displayed a melting point of 169 to 171 °C. The IC50 in series [1] was found to be 1.09 ± 0.137 µM. Also, the half-maximal inhibitory concentration (IC50) in series [2] amounted to 0.066 ± 0.014 µM. In series [3], the IC50 stood at 4.55 ± 0.533 µM and the “SI Values (selectivity index)” value was 4. Moreover, the IC50 in series [4] worked out at 2.74 ± 0.206 µM.
`O=C(c1ccccc1Nc1nc(Nc2ccc(CN3CCOCC3)cc2)ncc1Cl)N1CCC(Oc2no[n+]([O-])c2S(=O)(=O)c2ccccc2)CC1` [Compound 9e, 4-((1-(2-((5-Chloro-2-((4-(morpholinomethyl)phenyl)amino)pyrimidin-4-yl)amino)benzoyl)piperidin-4-yl)oxy)-3-(phenylsulfonyl)-1,2,5-oxadiazole 2-oxide] returned a melting point of 130 to 132 °C. Also, in series [1], the IC50 stood at 1.72 ± 0.295 µM. In series [2], this compound came in with an IC50 of over 1 µM. In series [3], the IC50 was determined as 0.763 ± 0.1 µM and the “SI Values (selectivity index)” value is reported as 0.4. The IC50 in series [4] was determined as 2.41 ± 0.587 µM.
In turn, `O=C(c1ccccc1Nc1nc(Nc2ccc(CN3CCOCC3)cc2)ncc1Cl)N1CCC(COc2no[n+]([O-])c2S(=O)(=O)c2ccccc2)CC1` [Compound 9f, 4-((1-(2-((5-Chloro-2-((4-(morpholinomethyl)phenyl)amino)pyrimidin-4-yl)amino)benzoyl)piperidin-4-yl)methoxy)-3-(phenylsulfonyl)-1,2,5-oxadiazole 2-oxide] had a melting point of 109 to 111 °C. The IC50 in series [1] worked out at 1.57 ± 0.265 µM. Besides, in series [2], the IC50 came to 0.3 ± 0.009 µM. In addition, in series [3], the IC50 came out at 3.76 ± 1.6 µM and the “SI Values (selectivity index)” value is reported as 2. In addition, the IC50 in series [4] was found to be 1.74 ± 0.305 µM.
For `C=CC(=O)Nc1cc(Nc2nccc(-c3cn(C)c4ccccc34)n2)c(OC)cc1N(C)CCN(C)C` [Osimertinib, osimertinib, reference compound], the values for the IC50 in series [1], in series [3] and in series [4] were 0.116 ± 0.032 µM, 1.21 ± 0.177 µM and 0.988 ± 0.119 µM, respectively. Also, the “SI Values (selectivity index)” value in series [3] worked out at 10.

These data come from PMC8304610, “Discovery of Novel 2,4-Dianilinopyrimidine Derivatives Containing 4-(Morpholinomethyl)phenyl and N-Substituted Benzamides as Potential FAK Inhibitors and Anticancer Agents” (Molecules, 2021).
